According to PubChem BioAssay (NCI):
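Step 1: Grow cells in 96-well plates. Step 2: Expose to compound for 48 hours at 5 concentrations. Step 3: Interpolate endpoints linearly; if unreached, use highest concentration. Here, GI50 denotes the concentration required for 50% inhibition of growth. TGI marks complete inhibition of growth.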

Legend:
Experiment in all cases: growth of human tumour cells (NCI), 48 h
[1] = tested on: ACHN renal
[2] = tested on: NCI/ADR-RES ovarian
[3] = tested on: BT-549 breast
[4] = tested on: HOP-62 NSCLC
[5] = tested on: NCI-H460 lung
[6] = tested on: MCF7 breast
[7] = tested on: HCC-2998 colon
[8] = tested on: KM12 colon
[9] = tested on: DU-145 prostate
[10] = tested on: NCI-H226 lung
[11] = tested on: U251 CNS
[12] = tested on: SF-539 CNS
[13] = tested on: SK-MEL-28 melanoma
[14] = tested on: MDA-MB-231 breast
[15] = tested on: OVCAR-3 ovarian
[16] = tested on: SNB-19 CNS
[17] = tested on: RXF 393 renal
[18] = tested on: HS 578T breast
[19] = tested on: SK-MEL-2 melanoma
[20] = tested on: SN12C renal
[21] = tested on: SF-295 CNS
[22] = tested on: CAKI-1 renal
[23] = tested on: UACC-257 melanoma
[24] = tested on: NCI-H522 lung
[25] = tested on: IGROV1 ovarian
[26] = tested on: NCI-H23 lung
[27] = tested on: OVCAR-8 ovarian
[28] = tested on: LOX IMVI melanoma
[29] = tested on: UACC-62 melanoma
[30] = tested on: A498 renal
[31] = tested on: SK-MEL-5 melanoma
[32] = tested on: SNB-75 CNS
[33] = tested on: K-562 leukemia
[34] = tested on: HCT-116 colon
[35] = tested on: SF-268 CNS
[36] = tested on: 786-0 renal
[37] = tested on: SK-OV-3 ovarian
[38] = tested on: T-47D breast
[39] = tested on: OVCAR-5 ovarian
[40] = tested on: TK-10 renal
[41] = tested on: SR leukemia
[42] = tested on: MALME-3M melanoma
[43] = tested on: M14 melanoma
[44] = tested on: MDA-MB-435
[45] = tested on: OVCAR-4 ovarian
[46] = tested on: HOP-92 NSCLC
[47] = tested on: UO-31 renal
[48] = tested on: A549 NSCLC
[49] = tested on: PC-3 prostate
[50] = tested on: MOLT-4 leukemia
[51] = tested on: SW-620 colon
[52] = tested on: CCRF-CEM leukemia
[53] = tested on: RPMI-8226 leukemia
[54] = tested on: COLO 205 colon
[55] = tested on: EKVX NSCLC
[56] = tested on: HT29 colon
[57] = tested on: HCT-15 colon

COc1cc(OC)cc(-c2cncn2-c2ccc(-c3nc4cc(OC)cc(OC)c4s3)cc2)c1
GI50 [1]: > 100000 nM
TGI [1]: > 100000 nM
GI50 [2]: 2.58 µM
TGI [2]: > 100 µM
GI50 [3]: 3.09 µM
TGI [3]: > 100 µM
GI50 [4]: 6.65 µM
TGI [4]: 34.5 µM
GI50 [5]: 4.41 µM
TGI [5]: > 100 µM
GI50 [6]: 3.82 µM
TGI [6]: > 100 µM
GI50 [7]: > 100 µM
TGI [7]: > 100 µM
GI50 [8]: 4.52 µM
TGI [8]: > 100 µM
GI50 [9]: > 100000 nM
TGI [9]: > 100 µM
GI50 [10]: 18.5 µM
TGI [10]: > 100 µM
GI50 [11]: 4.76 µM
TGI [11]: > 100 µM
GI50 [12]: 5.76 µM
TGI [12]: > 100 µM
GI50 [13]: > 100 µM
TGI [13]: > 100 µM
GI50 [14]: 9.01 µM
TGI [14]: > 100 µM
GI50 [15]: 2.87 µM
TGI [15]: > 100 µM
GI50 [16]: > 100 µM
TGI [16]: > 100 µM
GI50 [17]: 6.58 µM
TGI [17]: > 100 µM
GI50 [18]: 5.02 µM
TGI [18]: > 100 µM
GI50 [19]: 9.69 µM
TGI [19]: > 100 µM
GI50 [20]: > 100 µM
TGI [20]: > 100 µM
GI50 [21]: 2.4 µM
TGI [21]: 43.1 µM
GI50 [22]: 2130 nM
TGI [22]: > 100 µM
GI50 [23]: > 100 µM
TGI [23]: > 100 µM
GI50 [24]: 2490 nM
TGI [24]: > 100 µM
GI50 [25]: 5.07 µM
TGI [25]: > 100 µM
GI50 [26]: 10.3 µM
TGI [26]: > 100 µM
GI50 [27]: 14.5 µM
TGI [27]: > 100 µM
GI50 [28]: 5.48 µM
TGI [28]: > 100 µM
GI50 [29]: 4.75 µM
TGI [29]: > 100 µM
GI50 [30]: 3.15 µM
TGI [30]: > 100 µM
GI50 [31]: 3.29 µM
TGI [31]: > 100 µM
GI50 [32]: 3.28 µM
TGI [32]: 17.9 µM
GI50 [33]: 3.22 µM
TGI [33]: > 100 µM
GI50 [34]: 4.94 µM
TGI [34]: > 100 µM
GI50 [35]: 11.3 µM
TGI [35]: > 100 µM
GI50 [36]: 7.6 µM
TGI [36]: > 100 µM
GI50 [37]: 4.69 µM
TGI [37]: > 100 µM
GI50 [38]: 5.77 µM
TGI [38]: > 100 µM
GI50 [39]: > 100 µM
TGI [39]: > 100 µM
GI50 [40]: 16.8 µM
TGI [40]: > 100 µM
GI50 [41]: 3.3 µM
TGI [41]: > 100 µM

O=C1CC/C(=C\COc2ccc3ccc(=O)oc3c2)O1
GI50 [1]: 386 nM
TGI [1]: 2020 nM
GI50 [42]: 3.47 µM
TGI [42]: 24.4 µM
GI50 [2]: 14.9 µM
TGI [2]: 43 µM
GI50 [3]: 10.2 µM
TGI [3]: 26.4 µM
GI50 [43]: 3.28 µM
TGI [43]: 13.9 µM
GI50 [4]: 17.6 µM
TGI [4]: 38.2 µM
GI50 [5]: 16.8 µM
TGI [5]: > 100 µM
GI50 [6]: 3.61 µM
TGI [6]: 33.8 µM
GI50 [44]: 3.41 µM
TGI [44]: 17.5 µM
GI50 [45]: 4.78 µM
TGI [45]: 23.7 µM
GI50 [7]: 17 µM
TGI [7]: 35.6 µM
GI50 [8]: 10.1 µM
TGI [8]: 45.2 µM
GI50 [9]: 1890 nM
TGI [9]: 14.1 µM
GI50 [10]: 22.4 µM
TGI [10]: 83.1 µM
GI50 [11]: 10.3 µM
TGI [11]: 22.8 µM
GI50 [12]: 2.62 µM
TGI [12]: 19.2 µM
GI50 [13]: 15.3 µM
TGI [13]: 32.7 µM
GI50 [46]: 10.6 µM
TGI [46]: 25.5 µM
GI50 [47]: 6.41 µM
TGI [47]: 21.4 µM
GI50 [14]: 13.8 µM
TGI [14]: 29.4 µM
GI50 [48]: 24.1 µM
TGI [48]: > 100 µM
GI50 [15]: 4.44 µM
TGI [15]: 22 µM
GI50 [16]: 13.2 µM
TGI [16]: 36.8 µM
GI50 [49]: 1680 nM
TGI [49]: 18.3 µM
GI50 [17]: 8.41 µM
TGI [17]: 31.9 µM
GI50 [18]: 11.7 µM
TGI [18]: 81.7 µM
GI50 [19]: 10.9 µM
TGI [19]: 36.8 µM
GI50 [20]: 10.3 µM
TGI [20]: 28.8 µM
GI50 [21]: 43.5 µM
TGI [21]: > 100 µM
GI50 [22]: 1970 nM
TGI [22]: 20.6 µM
GI50 [23]: 13.6 µM
TGI [23]: 30 µM
GI50 [24]: 1760 nM
TGI [24]: 5.83 µM
GI50 [25]: 4.2 µM
TGI [25]: 17.8 µM
GI50 [50]: 6.41 µM
TGI [50]: > 100 µM
GI50 [26]: 11.7 µM
TGI [26]: 30 µM
GI50 [27]: 16.6 µM
TGI [27]: 40.8 µM
GI50 [28]: 6.96 µM
TGI [28]: 20.6 µM
GI50 [51]: 2350 nM
TGI [51]: 14.9 µM
GI50 [52]: 2420 nM
TGI [52]: 13.6 µM
GI50 [29]: 10.8 µM
TGI [29]: 24.7 µM
GI50 [30]: 16.8 µM
TGI [30]: 44 µM
GI50 [31]: 14.5 µM
TGI [31]: 32.7 µM
GI50 [32]: 12.7 µM
TGI [32]: 30.2 µM
GI50 [33]: 9.89 µM
TGI [33]: > 100 µM
GI50 [34]: 6.25 µM
TGI [34]: 22.8 µM
GI50 [35]: 11.9 µM
TGI [35]: 63 µM
GI50 [53]: 1070 nM
TGI [53]: 17.3 µM
GI50 [54]: 3.21 µM
TGI [54]: 17.5 µM
GI50 [36]: 2.89 µM
TGI [36]: 15.9 µM
GI50 [55]: 16.7 µM
TGI [55]: 46.4 µM
GI50 [37]: 27.8 µM
TGI [37]: > 100 µM
GI50 [38]: 4.83 µM
TGI [38]: 27.1 µM
GI50 [39]: 17.3 µM
TGI [39]: 34.8 µM
GI50 [40]: 2.83 µM
TGI [40]: 17.7 µM
GI50 [56]: 3.04 µM
TGI [56]: 17.3 µM
GI50 [57]: 3.84 µM
TGI [57]: 17.1 µM
